This note sets out measurements from ChEMBL document CHEMBL1201862, “PubChem BioAssay data set” (2004).

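How tested: cells in 96-well plates exposed to compound for 48 hours at five concentrations. GI50 = concentration required for 50% inhibition of growth.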 Calls of active or inactive are those of the source. Rule as the data show it: active = GI50 up to about 1.1 µM and inactive = higher. Where only a bound is given, the exact number is not on record here.

Among the test systems are ACHN; CCRF-CEM; HCC 2998; HCT-15; HOP-62; HT-29; K562; KM12; LOX IMVI; Malme-3M; NCI-H23; NCI-H460; NCI/ADR-RES; OVCAR-3; OVCAR-5; PC-3; RXF 393; SK-MEL-2; SN12C; SR.
Common to all, as to assay: NCI tumour cell line growth inhibition, 48 h

Consider `Nc1c2ccccc2nc2ccc3c(=O)cc(-c4ccccc4)oc3c12`, for which the GI50 in the assay on ACHN was 1.12 µM (active); with CCRF-CEM, 0.445 µM (active); with HCC 2998 it was 0.492 µM (active); with HCT-15, 1.02 µM; in the assay on HOP-62, 0.94 µM (active); with HT-29 it was 0.465 µM (active). Moreover, the GI50 is 0.272 µM (active) with K562; 0.596 µM (active) in the assay with KM12; 0.406 µM (active) with LOX IMVI; 1.66 µM (inactive) in the assay on Malme-3M; 1.53 µM (inactive) in the assay with NCI-H23; 0.646 µM (active) in the assay on NCI-H460. Further, the GI50 was 1.35 µM (inactive) in the assay on NCI/ADR-RES; 1.42 µM (inactive) in the assay on OVCAR-3; 1.5 µM (inactive) with OVCAR-5; 1.26 µM (inactive) with PC-3; 1.32 µM (inactive) in the assay with RXF 393; 1.96 µM (inactive) in the assay with SK-MEL-2. Further, the GI50 in the assay on SN12C was 0.979 µM (active); with SR, 0.393 µM (active).

For the molecule `O=S1(=O)OCCOS(=O)(=O)C1F`, the GI50 with ACHN is > 100 µM (inactive); with CCRF-CEM, > 100 µM (inactive); with HCC 2998, > 100 µM (inactive); with HCT-15 it was over 100 µM; in the assay on HOP-62, > 100 µM (inactive); in the assay on HT-29, > 100 µM (inactive). Further, the GI50 in the assay on K562, with KM12, in the assay on LOX IMVI, in the assay on Malme-3M, with NCI-H23 and with NCI/ADR-RES was > 100 µM (inactive) each time. In addition, the GI50 in the assay on OVCAR-3, in the assay on OVCAR-5, in the assay with PC-3, in the assay on RXF 393, in the assay on SK-MEL-2 and in the assay on SN12C was > 100 µM (inactive) in each case. Besides, in the assay on SR, the GI50 was > 100 µM (inactive).

On to `Nc1nc(N)c2c3c(cnc2n1)CC(c1ccccc1)CC3` (stereo not given), for which the GI50 was 5 µM (inactive) with ACHN; 34 µM (inactive) in the assay with HCC 2998; 4.04 µM in the assay with HCT-15; 21.6 µM (inactive) with HOP-62; 5.66 µM (inactive) in the assay on HT-29; 0.875 µM (active) in the assay on K562. In addition, the GI50 in the assay on KM12 is 23.9 µM (inactive); in the assay with LOX IMVI it was 1.71 µM (inactive); in the assay on Malme-3M, 31.5 µM (inactive); in the assay on NCI-H460 it was 3.66 µM (inactive); in the assay with NCI/ADR-RES, 20.3 µM (inactive); in the assay on OVCAR-3 it was 31 µM (inactive). In addition, the GI50 is 14.3 µM (inactive) in the assay with OVCAR-5; 21.9 µM (inactive) with PC-3; 17.7 µM (inactive) with RXF 393; 32.3 µM (inactive) in the assay with SK-MEL-2; 17.3 µM (inactive) in the assay with SN12C; 10.6 µM (inactive) with SR.

In the case of `COC(=O)C(CCc1ccccc1I)C1=CCC2(CC1)OCCO2` (stereo not given), the GI50 is 79.3 µM (inactive) in the assay with ACHN; 14 µM (inactive) with CCRF-CEM; 33.6 µM (inactive) with HCC 2998; 34.1 µM in the assay with HCT-15; 70.1 µM (inactive) in the assay on HOP-62; 35.1 µM (inactive) in the assay on HT-29. The GI50 with K562 is 66.4 µM (inactive); in the assay on KM12, 33.1 µM (inactive); in the assay on LOX IMVI it was 25.8 µM (inactive); with Malme-3M, 33.6 µM (inactive); with NCI-H23 it was 30.7 µM (inactive); in the assay with NCI-H460 it was 65.8 µM (inactive). Moreover, the GI50 is 24.6 µM (inactive) with NCI/ADR-RES; 29.4 µM (inactive) with OVCAR-3; 15.7 µM (inactive) in the assay on OVCAR-5; 27 µM (inactive) in the assay on PC-3; 17.9 µM (inactive) with RXF 393; 41.2 µM (inactive) with SK-MEL-2. Further, the GI50 in the assay with SR is 36.2 µM (inactive).

Regarding `COc1cc2c(cc1OC)C(=O)N(c1ccc(O)cc1)C2=O`, the GI50 is > 100 µM (inactive) with ACHN; > 100 µM (inactive) in the assay with CCRF-CEM; > 100 µM (inactive) in the assay with HCC 2998; over 100 µM with HCT-15; > 100 µM (inactive) with HOP-62; > 100 µM (inactive) in the assay on HT-29. The GI50 in the assay with K562, in the assay with LOX IMVI, in the assay with Malme-3M, in the assay on NCI-H23, in the assay on NCI-H460 and with NCI/ADR-RES was > 100 µM (inactive) each time. The GI50 in the assay with OVCAR-3, in the assay with OVCAR-5, in the assay on PC-3, in the assay on RXF 393, with SK-MEL-2 and with SN12C was > 100 µM (inactive) throughout. In addition, in the assay on SR, the GI50 is > 100 µM (inactive).

Turning to `N#CCCN(C(=O)Nc1ccc(NC(=O)N(CCC#N)c2ccccc2)cc1)c1ccccc1`, the GI50 with ACHN was > 100 µM (inactive); in the assay on HCC 2998, > 100 µM (inactive); in the assay on HCT-15, over 100 µM; in the assay on HOP-62 it was > 100 µM (inactive); in the assay with HT-29 it was > 100 µM (inactive); with K562, > 100 µM (inactive). The GI50 in the assay on KM12, in the assay on LOX IMVI, in the assay with Malme-3M, in the assay on NCI-H23, with NCI-H460 and with NCI/ADR-RES was > 100 µM (inactive) each time. Further, the GI50 in the assay on OVCAR-3 is > 100 µM (inactive); in the assay with OVCAR-5, > 100 µM (inactive); with PC-3 it was > 100 µM (inactive); with RXF 393, 92.7 µM (inactive); in the assay with SK-MEL-2 it was > 100 µM (inactive); with SN12C, > 100 µM (inactive). For the same molecule, the GI50 in the assay with SR is > 100 µM (inactive).

Turning to `COc1ccc2c(-c3ccc(OCCN(C)C)cc3)c(Oc3ccccc3)c(=O)oc2c1`, the GI50 was 10.2 µM (inactive) in the assay on ACHN; 3.54 µM (inactive) in the assay with CCRF-CEM; 3.5 µM (inactive) with HCC 2998; 3.48 µM in the assay with HCT-15; 13 µM (inactive) in the assay on HOP-62; 7.59 µM (inactive) in the assay with HT-29. Moreover, the GI50 is 3.07 µM (inactive) in the assay with K562; 4.78 µM (inactive) with KM12; 3.74 µM (inactive) with LOX IMVI; 3.12 µM (inactive) in the assay on Malme-3M; 12 µM (inactive) with NCI-H23; 7.64 µM (inactive) in the assay with NCI-H460. Further, the GI50 in the assay with NCI/ADR-RES is 4.5 µM (inactive); in the assay on OVCAR-3 it was 7.64 µM (inactive); in the assay on OVCAR-5 it was 14.2 µM (inactive); in the assay with PC-3, 6.12 µM (inactive); with RXF 393 it was 4.76 µM (inactive); in the assay on SK-MEL-2, 5.33 µM (inactive). In addition, the values for the GI50 in the assay on SN12C and in the assay on SR were 6.71 µM (inactive) and 2.07 µM (inactive), respectively.

Turning to `O=c1oc2c([N+](=O)[O-])cc([N+](=O)[O-])cc2c2ccccc12`, the GI50 with ACHN is > 100 µM (inactive); in the assay on CCRF-CEM, > 100 µM (inactive); with HCC 2998 it was > 100 µM (inactive); in the assay with HCT-15 it was over 100 µM; with HOP-62, > 100 µM (inactive); with HT-29, > 100 µM (inactive). Besides, the GI50 in the assay with K562, with LOX IMVI, in the assay with Malme-3M, in the assay on NCI-H23, in the assay with NCI-H460 and in the assay with NCI/ADR-RES was > 100 µM (inactive) each time. Further, the GI50 in the assay on OVCAR-3, with OVCAR-5, with PC-3, with RXF 393, in the assay with SK-MEL-2 and in the assay with SN12C was > 100 µM (inactive) throughout. Besides, in the assay on SR, the GI50 is > 100 µM (inactive).

For the molecule `Cc1nn2c(N)cc(=O)nc2nc1/C=C/c1ccc(N(C)C)cc1`, the GI50 in the assay on ACHN was 18 µM (inactive); in the assay on CCRF-CEM, < 0.01 µM (active); with HCC 2998, 3.18 µM (inactive); in the assay on HOP-62, 9.55 µM (inactive); in the assay with HT-29, 4.76 µM (inactive); in the assay with K562 it was 9.08 µM (inactive). In addition, the GI50 with KM12 was > 28.8 µM (inactive); in the assay with LOX IMVI, 4.11 µM (inactive); with Malme-3M, 5.2 µM (inactive); in the assay with NCI-H23, 10.4 µM (inactive); in the assay with NCI-H460 it was 6.89 µM (inactive); in the assay with NCI/ADR-RES, > 100 µM (inactive). Moreover, the GI50 with OVCAR-5 is 17.5 µM (inactive); in the assay on PC-3 it was > 100 µM (inactive); in the assay on RXF 393 it was 98.6 µM (inactive); in the assay on SK-MEL-2, > 49.2 µM (inactive); in the assay on SN12C, > 65.6 µM (inactive); in the assay on SR, > 100 µM (inactive).

`COc1ccc(C(=O)O[C@H]2CC[C@@]3(C)[C@@H]4CC[C@H]5[C@]6(O)C[C@H](O)[C@@]7(O)[C@@H](CN8C[C@@H](C)CC[C@H]8[C@@]7(C)O)[C@]6(O)C[C@@]53OC24O)cc1OC` [VERATRIDINE]: the GI50 in the assay on ACHN is > 100 µM (inactive); in the assay on HCC 2998 it was 46.1 µM (inactive); in the assay with HCT-15, over 100 µM; with HOP-62, > 100 µM (inactive); in the assay on HT-29, 60.1 µM (inactive); with K562, > 100 µM (inactive). The GI50 in the assay on KM12 is > 100 µM (inactive); with LOX IMVI it was > 100 µM (inactive); in the assay with Malme-3M, > 100 µM (inactive); in the assay on NCI-H23, > 100 µM (inactive); with NCI-H460, 75.2 µM (inactive); in the assay on NCI/ADR-RES, > 100 µM (inactive). Further, the GI50 in the assay on OVCAR-3 was > 100 µM (inactive); in the assay with OVCAR-5 it was > 100 µM (inactive); in the assay with PC-3, > 100 µM (inactive); with RXF 393, 57.5 µM (inactive); in the assay with SK-MEL-2 it was > 100 µM (inactive); in the assay with SN12C it was > 100 µM (inactive). The GI50 in the assay with SR was 74.8 µM (inactive).
